Source: ChEMBL document CHEMBL5053538, “Precursor-Directed Biosynthesis of Talaroenamine Derivatives Using a Yellow River Wetland-Derived Penicillium malacosphaerulum” (2021)
In brackets after ≈: the same amount, converted by molar mass.

Columns and labels:
Assay type in all cases: functional
[1] = tested on: Bacillus cereus; experiment: Antimicrobial activity against Bacillus cereus assessed as inhibition of bacterial growth incubated for 24 hrs by agar dilution method
[2] = tested on: Proteus sp.; experiment: Antimicrobial activity against Proteus sp. assessed as inhibition of bacterial growth incubated for 24 hrs by agar dilution method; conditions: Proteus sp. (in: enterobacteria)
[3] = tested on: Bacillus subtilis; experiment: Antimicrobial activity against Bacillus subtilis assessed as inhibition of bacterial growth incubated for 24 hrs by agar dilution method
[4] = tested on: Escherichia coli; experiment: Antimicrobial activity against Escherichia coli assessed as inhibition of bacterial growth incubated for 24 hrs by agar dilution method
[5] = tested on: Pseudomonas; experiment: Antimicrobial activity against Pseudomonas assessed as inhibition of bacterial growth incubated for 24 hrs by agar dilution method
[6] = tested on: Mycolicibacterium phlei; experiment: Antimicrobial activity against Mycobacterium phlei assessed as inhibition of bacterial growth incubated for 24 hrs by agar dilution method
[7] = tested on: Edwardsiella tarda; experiment: Antimicrobial activity against Edwardsiella tarda assessed as inhibition of bacterial growth incubated for 24 hrs by agar dilution method
[8] = tested on: Acinetobacter baumannii; experiment: Antimicrobial activity against Acinetobacter baumannii assessed as inhibition of bacterial growth incubated for 24 hrs by agar dilution method

SMILES	MIC [1] [µg/mL]	MIC [2] [µg/mL]	MIC [3] [µg/mL]	MIC [4] [µg/mL]	MIC [5] [µg/mL]	MIC [6] [µg/mL]	MIC [7] [µg/mL]	MIC [8] [µg/mL]
CC1=CC(=O)[C@@](C)(O)C(=O)/C1=C\Nc1ccc(Br)cc1F	> 10	> 10	> 10	8.83 (≈ 24.9 µM)	> 10	> 10	> 10	> 10
CC1=CC(=O)[C@@](C)(O)C(=O)/C1=C\Nc1ccccc1	> 10	> 10	> 10	> 10	> 10	> 10	> 10	> 10
CC1=CC(=O)[C@@](C)(O)C(=O)/C1=C\Nc1cc(F)c(F)c(F)c1	> 10	> 10	> 10	> 10	7.76 (≈ 24.9 µM)	> 10	> 10	> 10
CC1=CC(=O)[C@@](C)(O)C(=O)/C1=C\Nc1ccc(Br)cc1	> 10	> 10	> 10	> 10	> 10	> 10	> 10	> 10

Next, values leading:

MIC [1] [µg/mL]	MIC [2] [µg/mL]	MIC [3] [µg/mL]	MIC [4] [µg/mL]	MIC [5] [µg/mL]	MIC [6] [µg/mL]	MIC [7] [µg/mL]	MIC [8] [µg/mL]	SMILES
> 10	> 10	> 10	> 10	> 10	> 10	> 10	> 10	CC1=CC(=O)[C@@](C)(O)C(=O)/C1=C\Nc1ccc(F)c([N+](=O)[O-])c1
2.13 (≈ 6.24 µM)	2.13 (≈ 6.24 µM)	2.13 (≈ 6.24 µM)	4.26 (≈ 12.5 µM)	> 10	> 10	> 10	> 10	CC1=CC(=O)[C@@](C)(O)C(=O)/C1=C\Nc1cccc(OC(F)(F)F)c1
0.85 (≈ 3.13 µM)	6.78 (≈ 25 µM)	6.78 (≈ 25 µM)	6.78 (≈ 25 µM)	> 10	> 10	> 10	> 10	CC1=CC(=O)[C@@](C)(O)C(=O)/C1=C\Nc1ccc(C)cc1
0.26 (≈ 0.785 µM)	0.06 (≈ 0.181 µM)	0.06 (≈ 0.181 µM)	–	1.04 (≈ 3.14 µM)	0.26 (≈ 0.785 µM)	0.02 (≈ 0.0604 µM)	2.07 (≈ 6.25 µM)	O=C(O)c1cn(C2CC2)c2cc(N3CCNCC3)c(F)cc2c1=O [CIPROFLOXACIN]
